Experimental findings from PubChem BioAssay (NCI) are described below.

SMILES strings stand for the structures.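 Protocol summary: plate cells (96-well), add compound at 5 concentrations, incubate 48 h, interpolate endpoints linearly. GI50 is the concentration that inhibits growth by half. TGI: concentration producing complete growth inhibition.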 Some results are limits rather than exact numbers.

Common to all, as to experiment: inhibition of tumour cell growth, NCI panel, 48 h
The test system of test [1] is 786-0 renal.
Test [2] concerns OVCAR-4 ovarian.
In test [3] the test system is RPMI-8226 leukemia.
In test [4] the test system is SK-MEL-2 melanoma.
Test [5] has as its system SK-OV-3 ovarian.
Test [6] relates to SNB-19 CNS.
The subject of test [7] is SNB-75 CNS.
Test [8] deals with SW-620 colon.
Test [9] deals with UACC-257 melanoma.
Test [10] concerns UACC-62 melanoma.

For the compound `N#CC1=C(N)NC(=O)NC12Nc1ccccc1N2`, the GI50 in test [1], in [2], in test [3], in [4], in test [5] and in test [6] was more than 100 µM in each case. In addition, the GI50 in [7] is 45.2 µM; in test [8], more than 100 µM; in [9] it was more than 100 µM; in [10], more than 100 µM. Also, the TGI in test [1], in test [2], in test [3], in [4], in test [5] and in test [6] was more than 100 µM each time. Also, the TGI in test [7], in test [8], in test [9] and in test [10] was more than 100 µM in each case.
Consider `O=C1NC(c2ccccc2)C2(C(=O)O)CN(C3CC3)c3cc(N4CCNCC4)c(F)cc3C2N1` (centres undefined), for which the GI50 in test [1], in test [2], in [3], in [4], in [5] and in [6] was more than 100 µM each time. Besides, the GI50 in [7], in test [8], in test [9] and in test [10] was more than 100 µM each time. The TGI in [1], in test [2], in test [3], in [4], in [5] and in test [6] was more than 100 µM in each case. Also, the TGI in [7], in test [8], in test [9] and in test [10] was more than 100 µM in each case.
As for `COc1ccc2c(c1OC)C(=O)N1C2=Cc2c(cc3c(c2OC)OCO3)CC1N(C)C` (centres undefined), the TGI in [1] was more than 100 µM; in test [2], more than 100 µM; in test [3], 99.6 µM; in test [4], more than 100 µM; in [5] it was more than 100 µM; in test [6], more than 100 µM. Moreover, the TGI in test [7], in test [8], in test [9] and in [10] was more than 100 µM throughout.
Regarding `O=C[C@@H](CO)O[C@H](C=O)n1cnc2c(=O)[nH]cnc21`, the TGI was determined as 2010 µM in test [1]; 1150 µM in [2]; 633 µM in [3]; 1400 µM in [4]; 1630 µM in test [5]; 2150 µM in test [6]. Also, the TGI turned out to be 2270 µM in test [7], 868 µM in test [8], 1670 µM in test [9] and 1670 µM in test [10].
With `O=C(O)c1ccc(SSc2ccc(C(=O)O)cn2)nc1`, the TGI in test [1], in test [2], in [3], in [4], in test [5] and in test [6] was more than 100 µM throughout. Moreover, the TGI in test [7], in test [8], in test [9] and in test [10] was more than 100 µM throughout.
Consider `CC(SCc1ccccc1)C(=O)O` (centres undefined), for which the TGI in test [1], in test [2], in [3], in test [4], in test [5] and in test [6] was more than 100 µM each time. The TGI in test [7], in [8], in [9] and in test [10] was more than 100 µM in each case.
`C=C1C[C@@H]2C[C@@H](C)CC(O)[C@]2(CCCN)C1O` (some centres undefined): the TGI in test [1], in test [2], in test [3], in [4], in test [5] and in test [6] was more than 100 µM in each case. The TGI in test [7], in test [8], in test [9] and in test [10] was more than 100 µM each time.
On to `O=c1/c(=N\Nc2ccccc2)c2cccc3ccc4cccc1c4c32`, for which the TGI in [1], in test [2], in [3], in test [4], in test [5] and in [6] was more than 100 µM throughout. Moreover, the TGI in test [7], in test [8], in test [9] and in [10] was more than 100 µM throughout.
Take `COc1ccc(S(=O)(=O)N(C(C)=O)c2ccccc2/C=C/c2cc[n+]([O-])cc2)cc1`: the GI50 in [1] was 1.67 µM; in test [2], more than 6.79 µM; in test [3], 0.953 µM; in [4], 0.54 µM; in test [5] it was 1.05 µM; in test [6], 0.418 µM. Further, the GI50 is 0.25 µM in test [7], 0.559 µM in [8] and 0.457 µM in test [10]. The TGI in [1], in test [2], in test [3], in [4], in [5] and in [6] was more than 10 µM each time. Also, the TGI in test [7], in test [8], in [9] and in test [10] was more than 10 µM throughout.
As for `C=C(C)[C@@H]1CC[C@]2(C(=O)NS(=O)(=O)c3ccccc3)CC[C@]3(C)[C@H](CC[C@@H]4[C@@]5(C)CC[C@H](OC(=O)NS(=O)(=O)c6ccccc6)C(C)(C)[C@@H]5CC[C@]43C)[C@@H]12`, the GI50 in [1] is 2.42 µM; in test [2] it was 3.04 µM; in test [3], 1.37 µM; in test [4], 2.01 µM; in [5], 2.6 µM; in test [6], 3.42 µM. Also, the GI50 in [7] is 3.44 µM; in [8] it was 3.27 µM; in test [9] it was 3.06 µM; in test [10], 1.32 µM. The TGI in test [1] came out at 6.93 µM; in test [2] it was 51.4 µM; in test [3], 6.18 µM; in test [4], 4.97 µM; in test [5], 8.22 µM; in test [6] it was 18.2 µM. For the same compound, the TGI in test [7] came to 18.5 µM; in test [8] it was 15.2 µM; in test [9] it was 9.06 µM; in [10] it was 2.92 µM.
